This is an account of results in patent publication US7084166B2, “Bis-heterocyclic compounds with antitumour and chemosensitising activity” (Sigma-Tau Industrie Farmaceutichee Riunite S.p.A., priority 2000, dated 2006).

The structures appear in SMILES notation. Several values for one entry are separate records, joined by “and”; a condition that tells them apart may be missing. Equal entries are not always repeated. Where two headings read alike, the source gives them in different places.

What all share (format): cell-based
Assay [1] has as its system LoVo (human colon adenocarcinoma). Put plainly: Cytotoxicity test on sensitive tumour cell lines (sulforodamine B test). Particulars: 24 h incubation, survival after 48 h, ± S.D., read-out: antiproliferative activity IC50, Lovo. The protocol: (§1) This test was used to evaluate the survival of the human cell lines MCF-7 (human mammary carcinoma), LoVo (human colon adenocarcinoma), and MES-SA (human uterine sarcoma). The tumour cells were incubated with the compound, at scalar concentrations, (500 μM÷0.97 μM) for 24 hours; the compound was then removed and cell survival was evaluated after 48 hours using the sulforodamine B test (J. Natl. Cancer Inst. 82, 1107–1112). The antiproliferative activity of the compounds was evaluated in terms of the IC50 (concentration of the molecule that inhibits 50% of cell survival) processed with a curve-fitting program (Am. J. Physiol. 1978., 235, E97–E102) and expressed as μM±S.D.

Assay [2] has as its system MCF-7 (human mammary carcinoma). Described as above. Particulars: 24 h incubation, survival after 48 h, ± S.D., read-out: antiproliferative activity IC50, MCF-7. The protocol:
as §1

The subject of assay [3] is MES-SA (human uterine sarcoma). Described as above. The conditions noted are these: 24 h incubation, survival after 48 h, ± S.D., read-out: antiproliferative activity IC50, Mes-Sa. The protocol: as §1
Assay [4] concerns NB4 cells (acute promyelocytic leukaemia). Kind of assay: Flow cytofluorimetric analysis of cell cycle. The conditions noted are these: ATRA 0.01 μM alone, day 3. Details: APOPTOSIS: unit not given here. The protocol: The first line used was the NB4 cell line, bearing the t(15;17) chromosomal translocation which generates the fusion protein PML/RARα.
(§2) To assess the effect of the tested compounds on the various phases of the cell cycle, on the third day of treatment 500,000 cells were harvested, centrifuged at 1,000 rpm for 10 minutes, washed twice in PBS w/o (PBS without calcium and magnesium) and fixed in a solution of 50% PBS w/o+50% methanol/acetone (1:4 v/v) for at least 1 hour; the cells were then centrifuged as described, washed in PBS w/o and centrifuged again.
(§3) 200 μl of propidium iodide 100 μg/ml and 200 μl of RNase 150 kU/mg were then added to the cell pellet.
(§4) After a 30-min incubation in the dark at room temperature, the samples were analysed by flow cytofluirometry.

Assay [5] concerns HL60 cells (acute promyelocytic leukaemia). Kind of assay: Flow cytofluorimetric analysis of cell cycle. The conditions noted are these: ATRA 0.5 μM alone, day 3. The procedure:
The second line used was the HL60 cell line which responds to ATRA (but is less sensitive than the NB4 cell line).
The HL60 and NB4 cells were seeded at a density of 150,000 cells/ml in RPMI 1640 medium containing 10% foetal calf serum, and were treated with the tested compounds in the presence and absence of suboptimal doses of ATRA (5–10 nM for NB4 and 0.5 μM for HL60, respectively) in the dark, and returned to the incubator for 3 days without ever replacing the culture medium.
as §2, §3, §4

The test system of assay [6] is MES-SA Dx (human uterine sarcoma). Kind of assay: Cytotoxicity test on resistant tumour cell lines, tested compound alone. Particulars: 24 h incubation, survival after 48 h, ± SD. The protocol:
(§5) This test was used to evaluate the survival of human cell lines resistant to doxorubicin (about 100 times) and cross-resistant to daunorubicin, actinomycin D, mitoxantrone, vincristine, vinblastin, taxol, colchicine, and etoposide.
(§6) The following cell lines were used: MCF-7-Dx (human mammary carcinoma), LoVo-Dx (human colon adenocarcinoma), MES-SA Dx (human uterine sarcoma).
(§7) Before using the association doxorubicin-tested compound, the cytotoxicity of the cells was evaluated with the tested compound (alone) as follows: the cells were incubated with the compound, at scalar concentrations (500 μM÷0.97 μM), for 24 hours; the compound was then removed and cell survival was evaluated after 48 hours with the above-mentioned sulforodamine B test. The antiproliferative activity of the compounds was evaluated in terms of IC50 (concentration of the compound that inhibits 50% of cell survival) processed with the above-mentioned curve-fitting program.

Assay [7] relates to LoVo-Dx (human colon adenocarcinoma). The assay is described as above. The conditions noted are these: 24 h incubation, survival after 48 h, ± SD. The procedure: as §5, §6, §7
The subject of assay [8] is MCF-7-Dx (human mammary carcinoma). The assay is described as above. Particulars: 24 h incubation, survival after 48 h, ± SD. The protocol: as §5, §6, §7

For the compound `FCCCC[C@@H](c1cc2ccccc2[nH]1)c1c[nH]c2ccccc12` (racemic) [ST 1421, (R,S)-5-fluoro-1,1-(indol-2-ylindol-3-yl)-pentane], the IC50 in assay [1] was found to be 20.7 ± 0.7 µM; in assay [2], 20.4 ± 2.8 µM.
`CCCC(c1cc2ccccc2[nH]1)c1c[nH]c2ccccc12` (racemic) [ST 1625, (R,S)-1,1-(indol-2-yl, indol-3-yl) butane]: the IC50 amounted to 17.1 ± 3.8 µM in assay [1], 13.4 ± 1 µM in assay [2] and 14.1 ± 3.8 µM in assay [3].
As to `OCCCC(c1cc2cc3c(cc2[nH]1)OCO3)c1c[nH]c2cc3c(cc12)OCO3` (racemic) [ST 1731, (R,S)-4-hydroxy-1,1-di-(5,6-methylenedioxy-indol-2-yl, 5,6-methylenedioxy-indol-3-Yl)-butane], the results for the IC50 in assay [1] and in assay [2] were 23.9 ± 0.7 µM and 30.1 ± 4 µM, respectively.
For `CC1=C(/C=C/C(C)=C/C=C/C(C)=C/C(=O)O)C(C)(C)CCC1` [ATRA, all-trans retinoic acid, reference compound], in assay [4], the APOPTOSIS was 10 and 17.5 and 12.5; the G0/G1 was 54.6 and 65.0 and 55.8; the G2/M was 14.4 and 11.0 and 17.3; the S is 31.0 and 24.0 and 26.9. Besides, in assay [5], the G0/G1 is 63.3 and 63.4; the G2/M is given as 11.0; the S is 25.7 and 25.6.
For the compound `CC1(C)OCC(C(O)C2OC(C)(C)OC2C(c2c[nH]c3ccccc23)c2c[nH]c3ccccc23)O1` [ST 1339, 2,3-5,6-di-O-isopropylidene-1,1-di-indol-3-yl-1-deoxy-D-mannitol], the IC50 in assay [6] was determined as 56.1 ± 11 µM; in assay [7], 11 ± 0.6 µM; in assay [8], 98.2 ± 12 µM.
`OC[C@@H](O)[C@@H](O)[C@H](O)[C@@H](O)C(c1c[nH]c2ccccc12)c1c[nH]c2ccccc12` [ST 1350, 1,1-di-indol-3-yl-1-deoxy-D-glucose]: the figures for the IC50 in assay [6], in assay [7] and in assay [8] were 81.4 ± 8 µM, above 500 µM and 70.8 ± 3.7 µM, respectively.
As to `CC1(C)O[C@@H]([C@H](O)[C@H]2COC(C)(C)O2)[C@@H](C(c2c[nH]c3ncccc23)c2c[nH]c3ncccc23)O1` [ST 1353, 2,3-5,6-di-O-isopropylidene-1,1-di-7-azaindol-3-yl-1-deoxy-D-mannitol], the IC50 in assay [7] is 367 ± 82 µM; in assay [8], above 500 µM.
For `CC(=O)OC[C@@H](OC(C)=O)[C@@H](OC(C)=O)[C@H](OC(C)=O)[C@@H](OC(C)=O)C(c1c[nH]c2ccccc12)c1c[nH]c2ccccc12` [ST 1363, 1,1-di-indol-3-yl-1-deoxy-pentaacetyl-D-glucose], the IC50 in assay [1] was determined as 31.3 ± 1.6 µM; in assay [2] it was 25 ± 2.8 µM; in assay [3], 33.6 ± 5.9 µM; in assay [7], 121 ± 12 µM; in assay [8], 65.4 ± 0.7 µM.
With `CC(=O)OCCCCC(c1c[nH]c2ccccc12)c1c[nH]c2ccccc12` [ST 1371, 5-acetoxy-1,1-diindol-3-yl-pentane], the IC50 amounted to 33 ± 3 µM in assay [1] (Homo sapiens, LoVo); 27.7 ± 4.2 µM in assay [2] (Homo sapiens, MCF7); 53 ± 0.4 µM in assay [6] (Homo sapiens, MES-SA Dx); 47.9 ± 4.7 µM in assay [7] (Homo sapiens, LoVo/DX); 74.1 ± 2.5 µM in assay [8] (Homo sapiens, MCF7/DX).
On to `FCCCCC(c1c[nH]c2ccccc12)c1c[nH]c2ccccc12` [ST 1382, 1,1-(diindol-3-yl)-5-fluoro-pentane], for which the IC50 came out at 33.5 ± 3.7 µM in assay [1]; 28.5 ± 6 µM in assay [2]; 40.2 ± 4.1 µM in assay [3]; 12.5 ± 0.3 µM in assay [6]; 34.3 ± 6.9 µM in assay [7]; 40.2 ± 3 µM in assay [8].
Consider `CCCC(c1c[nH]c2ccccc12)c1c[nH]c2ccccc12` [ST 1385, 1,1-di-indol-3-yl-butane], for which the IC50 in assay [1] (Homo sapiens, LoVo) came out at 26.4 ± 0.4 µM; in assay [2] (Homo sapiens, MCF7), 27 ± 3.2 µM; in assay [3] (Homo sapiens, MES-SA), 19.5 ± 4 µM; in assay [6] (Homo sapiens, MES-SA Dx), 33.6 ± 2.9 µM; in assay [7] (Homo sapiens, LoVo/DX), 17.6 ± 0.9 µM; in assay [8] (Homo sapiens, MCF7/DX), 34.6 ± 2 µM.
In the case of `CCCC(c1c[nH]c2ccc(O)cc12)c1c[nH]c2ccc(O)cc12` [ST 1393, 1,1-di-(5-hydroxyindol-3-yl)-butane], the IC50 in assay [1] (Homo sapiens, LoVo) was determined as 3 ± 0.5 µM; in assay [2] (Homo sapiens, MCF7) it was 5.9 ± 0.8 µM; in assay [3] (Homo sapiens, MES-SA) it was 5.7 ± 0.1 µM; in assay [6] (Homo sapiens, MES-SA Dx) it was 7.5 ± 0.3 µM; in assay [7] (Homo sapiens, LoVo/DX), 2.7 ± 0.4 µM; in assay [8] (Homo sapiens, MCF7/DX), 9.2 ± 0.4 µM.
As to `CCCC(c1c[nH]c2ccc([N+](=O)[O-])cc12)c1c[nH]c2ccc([N+](=O)[O-])cc12` [ST 1429, 1,1-di-(5 nitroindol-3-yl)-butane], the IC50 in assay [1] (Homo sapiens, LoVo) was 23.6 ± 0.5 µM; in assay [2] (Homo sapiens, MCF7) it was 10.4 ± 0.3 µM; in assay [3] (Homo sapiens, MES-SA) it was 15 ± 2.5 µM; in assay [6] (Homo sapiens, MES-SA Dx), 15.3 ± 0.4 µM; in assay [7] (Homo sapiens, LoVo/DX), 10.2 ± 0.5 µM; in assay [8] (Homo sapiens, MCF7/DX), 12.9 ± 0.7 µM.
Turning to `CCOC(=O)c1ccc(C(c2ccccc2)c2ccc(C(=O)OCC)[nH]2)[nH]1` [ST 1431, di-(5-ethoxycarbonyl-pyrrol-2-yl)-phenyl-methane], the IC50 in assay [1] (Homo sapiens, LoVo) came out at 35.6 ± 0.5 µM; in assay [2] (Homo sapiens, MCF7), 20.3 ± 1.4 µM.
As for `CCCC(c1c[nH]c2ccc(N)cc12)c1c[nH]c2ccc(N)cc12` [ST 1437, 1,1-di-(5-amino-indol-3-yl)-butane. 2HCl], the IC50 was 16.7 ± 3.4 µM in assay [1]; 8.3 ± 1.2 µM in assay [2]; 4.4 ± 0.06 µM in assay [3]; 12.2 ± 0.8 µM in assay [6]; 8 ± 0.6 µM in assay [7].
As for `CCCC(c1c[nH]c2ccc(F)cc12)c1c[nH]c2ccc(F)cc12` [ST 1438, 1,1-di-(5-fluoroindol-3-yl)-butane], the IC50 in assay [1] (Homo sapiens, LoVo) is 20 ± 0.8 µM; in assay [2] (Homo sapiens, MCF7), 28.1 ± 0.9 µM; in assay [3] (Homo sapiens, MES-SA), 21.8 ± 4.4 µM; in assay [6] (Homo sapiens, MES-SA Dx), 35.6 ± 1.7 µM; in assay [7] (Homo sapiens, LoVo/DX), 25.9 ± 3.1 µM; in assay [8] (Homo sapiens, MCF7/DX) it was 41.8 ± 5.3 µM.
As for `OC(c1ccccc1)(c1nccn1Cc1ccccc1)c1nccn1Cc1ccccc1` [ST 1440, phenyl, hydroxy, di-(N,N-dibenzyl-imidazol-2-yl) methane], the IC50 in assay [1] worked out at 11.7 ± 0.2 µM; in assay [2], 17 ± 2.9 µM; in assay [3], 4.7 ± 0.4 µM; in assay [6], 14.9 ± 2.5 µM; in assay [7], 4.6 ± 0.6 µM; in assay [8], 29.7 ± 2.6 µM.
Turning to `O=C(c1cn(Cc2ccccc2)c2ccccc12)c1cn(Cc2ccccc2)c2ccccc12` [ST 1473, di-(N-benzyl-indol-3-yl)-oxomethane], the IC50 in assay [6] (Homo sapiens, MES-SA Dx) was above 500 µM; in assay [7] (Homo sapiens, LoVo/DX) it was 8.6 ± 2.9 µM; in assay [8] (Homo sapiens, MCF7/DX), above 500 µM.
`CCCC(c1c[nH]c2ccc(NC(C)=O)cc12)c1c[nH]c2ccc(NC(C)=O)cc12` [ST 1477, 1,1-di-(5-acetamido-indol-3-yl)-butane]: the IC50 in assay [1] (Homo sapiens, LoVo) is 59.4 ± 6.9 µM; in assay [2] (Homo sapiens, MCF7), 33.1 ± 2.9 µM; in assay [3] (Homo sapiens, MES-SA), 28.7 ± 0.2 µM.
On to `CCC=C(c1cn(Cc2ccccc2)c2ccccc12)c1cn(Cc2ccccc2)c2ccccc12` [ST 1492, 1,1-di-(N-benzyl-indol-3-yl)-1-butene], for which the IC50 is 178 ± 41 µM in assay [6] (Homo sapiens, MES-SA Dx) and above 350 µM in assay [7] (Homo sapiens, LoVo/DX).
`CCCc1c(C(=O)c2cn(Cc3ccccc3)c3ccccc23)c2ccccc2n1Cc1ccccc1` [ST 1494, (N-benzyl-indol-3-yl, N-benzyl-2-propyl indol-3-yl)-oxomethane]: the IC50 in assay [6], in assay [7] and in assay [8] was above 200 µM each time.
For the compound `OCCCC(c1c[nH]c2cc3c(cc12)OCO3)c1c[nH]c2cc3c(cc12)OCO3` [ST 1730, 4-hydroxy-1,1-di-(5,6-methylenedioxy-indol-3-yl)-butane], the IC50 came out at 9.3 ± 0.9 µM in assay [1] (Homo sapiens, LoVo) and 24.5 ± 3.7 µM in assay [2] (Homo sapiens, MCF7).
